“And” between values parts separate entries of the source, which are not always exact repeats. Equal entries are not always repeated.
Tested on: 324938-238-R-J1-PDC complex spheroids viability
Test: Anticancer human tumor 324938-238-R-J1-PDC patient-derived bladder carcinoma cell line growth inhibition [CLK]
Settings: for viability, T/C: stronger effect = lower value
From the text: A high-throughput screen of multi-cell type tumor spheroids was designed to identify active combinations of […] and targeted small molecules. Complex spheroids include a stromal component modeled by human endothelial cells (HUVEC) and fibroblasts modeled by human mesenchymal stem cells (MSCs). The concentration ranges selected for each drug and investigational agent were based upon clinically achievable concentrations if the clinical Cmax of the agent was known.
Compounds. The drugs and investigational agents: cirtuvivint (SM08502; NSC835563), CC-671 (NSC850746), vemurafenib (NSC761431), tapotoclax (NSC804041), sotorasib (NSC818433), adagrasib (NSC831453), MRTX-1133 (NSC836407), BAY2416964 (NSC825713), copanlisib (NSC816437), inavolisib (NSC800729), abemaciclib (NSC768073), osimertinib (NSC779217), entinostat (NSC756642), eltanexor (KPT-8602, NSC794443), venetoclax (NSC766270), ceralasertib (NSC777638), bortezomib (NSC756655), olaparib (NSC753686), talazoparib (NSC767125), alisertib (NSC759677), peposertib (NSC802822), gemcitabine (NSC613327), 5-fluorouracil (NSC19893), SN-38 (NSC673596), oxaliplatin (NSC266046), paclitaxel (NSC125973), and doxorubicin (NSC123127), were obtained from the National Cancer Institute (NCI) Developmental Therapeutics Program Chemical Repository. The FDA-approved anticancer drug set is available from the Developmental Therapeutics Program at https://dtp.cancer.gov/organization/dscb/obtaining/available plates.htm. […] The stock solutions were prepared in dimethyl sulfoxide (DMSO, Sigma-Aldrich, St. Louis, MO, cat. D2650), except for the platinum complexes which were prepared in saline (Quality Biological, Gaithersburg, MD, cat. 114-055-101), at 800-fold the tested concentration and stored at -70 degrees C prior to their use. All drugs and investigational agents were tested over a range starting from a high concentration at or near the clinical Cmax and decreasing in half-log increments. If the clinical Cmax for an agent had not been determined, the highest concentration tested was 10 microM.
Cell Culture. All cells were maintained in an incubator at 37 degrees C and 5% CO2 with 95% humidity. The PDC lines were cultured according to standard operating procedures established by the NCI PDMR. Briefly, all PDCs were thawed and cultured in Matrigel-coated flasks prepared with a working solution of 1X Ham's F-12 nutrient mix, without supplementation (Invitrogen, Waltham, MA, cat. 11765054), 100 U/mL penicillin-streptomycin (Invitrogen, cat. 15140122), and 2.5% Matrigel (Corning Inc., Corning, NY, cat. 354248) for the first three passages. The 947758-054-R-J2-PDC line was cultured in 6B/Colon 1A media, which includes advanced DMEM/F-12 (Thermo Fisher Scientific, cat. 12634028), 10 mM HEPES (Thermo Fisher Scientific, cat. 15630080), 1X GlutaMAX supplement (Thermo Fisher Scientific, cat. 35050061), 0.1 mg/mL primocin (InvivoGen, cat. ant-pm-2), 10% defined fetal bovine serum, heat inactivated (HyClone Laboratories Inc., cat. SH30070.03HI), 1.25 mM N-Acetyl-L-cysteine (Sigma-Aldrich, cat. A9165), 10 mM nicotinamide (Sigma-Aldrich, cat. N0636), 1X B-27 supplement (Thermo Fisher Scientific, cat. 17504044), 1X N-2 supplement (Thermo Fisher Scientific, cat. 17502048), and 10 microM Y-27632 dihydrochloride (Tocris Bioscience, cat. 1254). The 876862-298-R-J1-PDC was cultured in 6E media, which includes all 6B/Colon 1A media components plus 50% L-WRN conditioned media (ATCC, cat. CRL-3276), 50 ng/mL recombinant human EGF recombinant protein (hEGF; Thermo Fisher Scientific, cat. PHG0311), 10 ng/mL recombinant human fibroblast growth factor 10 (hGFG-10; PeproTech, cat. 100-26), 1 ng/mL recombinant human fibroblast growth factor 2 (hFGF-2; PeproTech, cat. 100-18B), and 1 µM prostaglandin E2 (PGE2; Tocris, cat. 2296). The 227483-062-R1-J1-PDC line was cultured in Panc media, containing all 6E components except hFGF-2, with the addition of 500 nM SB-431542 (Selleckchem, cat. S1067) and 10 nM gastrin (Tocris, cat. 3006). […]
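Note: viability read after seven days of drug exposure.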
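Throughout, for viability, T/C: 100% = DMSO vehicle control wells.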

With `CC(=O)O[C@H]1C(=O)[C@@]2(C)[C@H]([C@H](OC(=O)c3ccccc3)[C@]3(O)C[C@H](OC(=O)[C@H](O)[C@@H](NC(=O)c4ccccc4)c4ccccc4)C(C)=C1C3(C)C)[C@]1(OC(C)=O)CO[C@@H]1C[C@@H]2O` the viability, T/C (compound 0.0316 µM) was 12.8% and 11.6%, the viability, T/C (compound 0.1 µM) was 12% and the viability, T/C (compound 0.316 µM) was 11.3% and 13.4%. The viability, T/C (compound 1 µM) was 12.2% and 10.1%, the viability, T/C (compound 3.16 µM) was 13.7% and 12.3% and the viability, T/C (compound 10 µM) was 15.3% and 14.2%. For the same compound, the IC50 (curve of compound) was less than 0.0316 µM.
In the case of `COc1ccc([C@@H](O)c2cc(-c3ncnc4cc(N5CCOCC5)ccc34)c(F)cc2Cl)nn1`, the viability, T/C (compound 0.0316 µM) is reported as 78% and 79.6%, the viability, T/C (compound 0.1 µM) is reported as 81% and 88.1% and the viability, T/C (compound 0.316 µM) is reported as 68.9% and 55.6%. The viability, T/C (compound 1 µM) was 59.9% and 71%, the viability, T/C (compound 3.16 µM) was 52.4% and 50.7% and the viability, T/C (compound 10 µM) was 37.4% and 36.7%. For the same compound, the IC50 (curve of compound) was 3.3 µM and 3.51 µM.
In the case of `COc1cccc2c1C(=O)c1c(O)c3c(c(O)c1C2=O)CC(O)(C(=O)CO)CC3OC1CC(N)C(O)C(C)O1` (stereo not drawn), the viability, T/C (compound 0.0316 µM) is reported as 18.6% and 20.6%, the viability, T/C (compound 0.1 µM) is reported as 12.3% and 18% and the viability, T/C (compound 0.316 µM) is reported as 7.21% and 8.55%. The viability, T/C (compound 1 µM) was 1.1% and 0.74%, the viability, T/C (compound 3.16 µM) was 0.07% and 0.13% and the viability, T/C (compound 10 µM) was 0.18% and 0.15%. It also gave an IC50 (curve of compound) of less than 0.0316 µM.
`C=CC(=O)N1CCN(c2nc(=O)n(-c3c(C)ccnc3C(C)C)c3nc(-c4c(O)cccc4F)c(F)cc23)C(C)C1` (stereo not drawn) + CN1CCN(c2cc(C(=O)Nc3cc4cc(-c5cnn(C)c5)ccc4cn3)ccn2)CC1 gave an IC50 (curve of first compound, second compound 0.0316 µM) greater than 10 µM, an IC50 (curve of first compound, second compound 0.1 µM) greater than 10 µM and an IC50 (curve of first compound, second compound 0.316 µM) of less than 0.0316 µM. The IC50 (curve of first compound, second compound 1 µM) was less than 0.0316 µM, the IC50 (curve of first compound, second compound 3.16 µM) was less than 0.0316 µM and the IC50 (curve of first compound, second compound 10 µM) was less than 0.0316 µM. For the same compound, the viability, T/C (second compound 0.0316 µM, first compound 0.0316 µM) was 79.2%, the viability, T/C (second compound 0.0316 µM, first compound 0.1 µM) was 77.8% and the viability, T/C (second compound 0.0316 µM, first compound 0.316 µM) was 84.5%. For the same compound, the viability, T/C (second compound 0.0316 µM, first compound 1 µM) was 103%, the viability, T/C (second compound 0.0316 µM, first compound 3.16 µM) was 87.4% and the viability, T/C (second compound 0.0316 µM, first compound 10 µM) was 82.7%. The viability, T/C (second compound 0.1 µM, first compound 0.0316 µM) was 59.6%, the viability, T/C (second compound 0.1 µM, first compound 0.1 µM) was 61.4% and the viability, T/C (second compound 0.1 µM, first compound 0.316 µM) was 63.2%. The viability, T/C (second compound 0.1 µM, first compound 1 µM) was 64.8%, the viability, T/C (second compound 0.1 µM, first compound 3.16 µM) was 66.6% and the viability, T/C (second compound 0.1 µM, first compound 10 µM) was 59.9%. It also gave a viability, T/C (second compound 0.316 µM, first compound 0.0316 µM) of 27.4%, a viability, T/C (second compound 0.316 µM, first compound 0.1 µM) of 25% and a viability, T/C (second compound 0.316 µM, first compound 0.316 µM) of 27.4%. It also gave a viability, T/C (second compound 0.316 µM, first compound 1 µM) of 28.9%, a viability, T/C (second compound 0.316 µM, first compound 3.16 µM) of 35.5% and a viability, T/C (second compound 0.316 µM, first compound 10 µM) of 27.8%. For the same compound, the viability, T/C (second compound 1 µM, first compound 0.0316 µM) was 1.25%, the viability, T/C (second compound 1 µM, first compound 0.1 µM) was 1.85% and the viability, T/C (second compound 1 µM, first compound 0.316 µM) was 1.99%. The viability, T/C (second compound 1 µM, first compound 1 µM) was 1.7%, the viability, T/C (second compound 1 µM, first compound 3.16 µM) was 1.08% and the viability, T/C (second compound 1 µM, first compound 10 µM) was 0.78%. For the same compound, the viability, T/C (second compound 3.16 µM, first compound 0.0316 µM) was 0.13%, the viability, T/C (second compound 3.16 µM, first compound 0.1 µM) was 0.25% and the viability, T/C (second compound 3.16 µM, first compound 0.316 µM) was 0.19%. The viability, T/C (second compound 3.16 µM, first compound 1 µM) was 0.16%, the viability, T/C (second compound 3.16 µM, first compound 3.16 µM) was 0.12% and the viability, T/C (second compound 3.16 µM, first compound 10 µM) was 0.25%. For the same compound, the viability, T/C (second compound 10 µM, first compound 0.0316 µM) was 0.2%, the viability, T/C (second compound 10 µM, first compound 0.1 µM) was 0.19% and the viability, T/C (second compound 10 µM, first compound 0.316 µM) was 0.18%. It also gave a viability, T/C (second compound 10 µM, first compound 1 µM) of 0.15%, a viability, T/C (second compound 10 µM, first compound 3.16 µM) of 0.16% and a viability, T/C (second compound 10 µM, first compound 10 µM) of 0.33%.
